Data reported in ChEMBL document CHEMBL1255573, “Synthesis and biochemical characterization of a series of 17α-perfluoroalkylated estradiols as selective ligands for estrogen receptor α” (J Med Chem, 2010).

How the values were obtained:
[1] = molecular target: T1, Estrogen receptor (Homo sapiens, UniProt P03372); assay: Agonist activity at ERalpha-LBD in human U2OS cells transfected with Gal4-DBD assessed as increase of transactivation activity after 18 hrs by luciferase reporter gene assay; format: functional, cell-based; details: for pEC50: u2os
T1 sequence (P03372 whole entry): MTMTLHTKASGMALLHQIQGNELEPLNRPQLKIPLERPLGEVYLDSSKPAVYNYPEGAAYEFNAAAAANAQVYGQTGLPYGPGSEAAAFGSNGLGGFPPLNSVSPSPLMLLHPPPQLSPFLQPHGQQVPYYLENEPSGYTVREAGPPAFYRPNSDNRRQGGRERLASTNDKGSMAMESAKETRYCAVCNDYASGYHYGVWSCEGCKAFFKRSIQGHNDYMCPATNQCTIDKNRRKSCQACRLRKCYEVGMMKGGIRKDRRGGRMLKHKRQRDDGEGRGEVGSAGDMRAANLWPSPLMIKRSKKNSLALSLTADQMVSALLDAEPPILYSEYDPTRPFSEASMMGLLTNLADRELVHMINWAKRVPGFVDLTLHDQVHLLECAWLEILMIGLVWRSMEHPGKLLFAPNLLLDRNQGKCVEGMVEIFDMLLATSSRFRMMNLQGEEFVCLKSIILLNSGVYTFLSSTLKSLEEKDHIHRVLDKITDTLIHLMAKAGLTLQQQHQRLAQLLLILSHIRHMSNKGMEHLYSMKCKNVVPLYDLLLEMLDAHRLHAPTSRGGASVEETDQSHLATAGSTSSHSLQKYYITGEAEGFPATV

[2] = molecular target: T2, Estrogen receptor beta (Homo sapiens, UniProt Q92731); assay: Agonist activity at ERbeta-LBD in human U2OS cells transfected with Gal4-DBD assessed as increase of transactivation activity after 18 hrs by luciferase reporter gene assay; format: functional, cell-based; details: for pEC50: u2os
[3] = molecular target: T3, Mineralocorticoid receptor (Homo sapiens, UniProt P08235); assay: Agonist activity at mineralocorticoid receptor-LBD in human U2OS cells transfected with Gal4-DBD assessed as increase of transactivation activity after 18 hrs by luciferase reporter gene assay; format: functional, cell-based
T3 sequence (P08235 whole entry): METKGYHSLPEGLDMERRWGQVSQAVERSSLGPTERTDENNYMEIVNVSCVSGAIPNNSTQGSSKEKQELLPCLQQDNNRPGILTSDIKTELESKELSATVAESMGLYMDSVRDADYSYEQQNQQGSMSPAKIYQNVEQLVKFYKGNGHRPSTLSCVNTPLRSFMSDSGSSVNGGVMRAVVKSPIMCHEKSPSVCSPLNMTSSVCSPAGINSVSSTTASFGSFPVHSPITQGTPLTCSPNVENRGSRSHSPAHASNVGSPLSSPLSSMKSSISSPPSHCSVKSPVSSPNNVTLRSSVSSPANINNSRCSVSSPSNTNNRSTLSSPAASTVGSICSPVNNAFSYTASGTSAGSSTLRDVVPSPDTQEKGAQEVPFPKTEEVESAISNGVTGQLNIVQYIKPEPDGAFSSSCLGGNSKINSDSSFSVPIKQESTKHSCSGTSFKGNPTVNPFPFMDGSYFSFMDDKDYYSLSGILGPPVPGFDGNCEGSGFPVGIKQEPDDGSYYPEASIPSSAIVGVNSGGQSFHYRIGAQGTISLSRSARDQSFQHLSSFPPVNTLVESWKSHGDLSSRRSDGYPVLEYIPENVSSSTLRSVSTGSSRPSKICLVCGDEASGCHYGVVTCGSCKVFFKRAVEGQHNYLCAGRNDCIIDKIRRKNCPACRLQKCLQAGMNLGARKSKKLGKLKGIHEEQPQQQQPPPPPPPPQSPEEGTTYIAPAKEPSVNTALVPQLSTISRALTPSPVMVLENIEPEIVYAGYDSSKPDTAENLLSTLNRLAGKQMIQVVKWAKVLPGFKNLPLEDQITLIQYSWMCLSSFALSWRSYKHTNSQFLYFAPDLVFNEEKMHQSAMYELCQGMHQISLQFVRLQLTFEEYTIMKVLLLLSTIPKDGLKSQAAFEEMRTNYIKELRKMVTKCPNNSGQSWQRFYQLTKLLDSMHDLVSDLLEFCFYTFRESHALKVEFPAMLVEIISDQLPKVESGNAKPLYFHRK

[4] = molecular target: T2, Estrogen receptor beta; assay: Agonist activity at ERbeta-LBD in human U2OS cells transfected with Gal4-DBD assessed as increase of transactivation activity after 18 hrs by luciferase reporter gene assay relative to 17-beta-estradiol; format: functional, cell-based
[5] = molecular target: T1, Estrogen receptor; assay: Antagonist activity at ERalpha-LBD in human U2OS cells transfected with Gal4-DBD assessed as inhibition of transactivation activity after 18 hrs by luciferase reporter gene assay; format: functional, cell-based
[6] = molecular target: T2, Estrogen receptor beta; assay: Antagonist activity at ERbeta-LBD in human U2OS cells transfected with Gal4-DBD assessed as inhibition of transactivation activity after 18 hrs by luciferase reporter gene assay; format: functional, cell-based
[7] = molecular target: T3, Mineralocorticoid receptor; assay: Antagonist activity at mineralocorticoid receptor-LBD in human U2OS cells transfected with Gal4-DBD assessed as inhibition of transactivation activity after 18 hrs by luciferase reporter gene assay; format: functional, cell-based; details: for pIC50: u2os
[8] = molecular target: T4, Glucocorticoid receptor (Homo sapiens, UniProt P04150)
T4 sequence (P04150 whole entry): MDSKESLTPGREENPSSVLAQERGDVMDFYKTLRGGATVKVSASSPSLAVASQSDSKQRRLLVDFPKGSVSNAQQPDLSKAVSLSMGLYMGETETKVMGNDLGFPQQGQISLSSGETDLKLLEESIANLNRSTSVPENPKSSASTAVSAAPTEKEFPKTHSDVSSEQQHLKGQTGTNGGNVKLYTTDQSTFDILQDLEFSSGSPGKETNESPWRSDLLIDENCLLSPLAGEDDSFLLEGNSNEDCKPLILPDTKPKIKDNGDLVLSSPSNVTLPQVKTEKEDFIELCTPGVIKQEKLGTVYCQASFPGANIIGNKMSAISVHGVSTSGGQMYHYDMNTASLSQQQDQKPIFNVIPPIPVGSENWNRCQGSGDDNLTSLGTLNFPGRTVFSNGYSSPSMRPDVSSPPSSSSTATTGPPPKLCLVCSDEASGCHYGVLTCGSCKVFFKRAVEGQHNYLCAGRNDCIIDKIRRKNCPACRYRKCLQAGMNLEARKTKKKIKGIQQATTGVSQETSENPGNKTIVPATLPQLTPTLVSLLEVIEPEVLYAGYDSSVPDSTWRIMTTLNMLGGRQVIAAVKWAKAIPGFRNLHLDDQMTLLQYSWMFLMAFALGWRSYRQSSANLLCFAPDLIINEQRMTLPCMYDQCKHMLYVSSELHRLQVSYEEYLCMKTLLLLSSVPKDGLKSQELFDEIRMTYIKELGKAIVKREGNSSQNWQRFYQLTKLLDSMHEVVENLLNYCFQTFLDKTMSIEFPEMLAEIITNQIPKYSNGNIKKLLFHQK
Description: Agonist activity at glucocorticoid receptor-LBD in human U2OS cells transfected with Gal4-DBD assessed as increase of transactivation activity after 18 hrs by luciferase reporter gene assay

[9] = molecular target: T4, Glucocorticoid receptor; remark: listed apart in the source
Description: Antagonist activity at glucocorticoid receptor-LBD in human U2OS cells transfected with Gal4-DBD assessed as inhibition of transactivation activity after 18 hrs by luciferase reporter gene assay

T2 sequence (Q92731 whole entry, the tested form may be a part): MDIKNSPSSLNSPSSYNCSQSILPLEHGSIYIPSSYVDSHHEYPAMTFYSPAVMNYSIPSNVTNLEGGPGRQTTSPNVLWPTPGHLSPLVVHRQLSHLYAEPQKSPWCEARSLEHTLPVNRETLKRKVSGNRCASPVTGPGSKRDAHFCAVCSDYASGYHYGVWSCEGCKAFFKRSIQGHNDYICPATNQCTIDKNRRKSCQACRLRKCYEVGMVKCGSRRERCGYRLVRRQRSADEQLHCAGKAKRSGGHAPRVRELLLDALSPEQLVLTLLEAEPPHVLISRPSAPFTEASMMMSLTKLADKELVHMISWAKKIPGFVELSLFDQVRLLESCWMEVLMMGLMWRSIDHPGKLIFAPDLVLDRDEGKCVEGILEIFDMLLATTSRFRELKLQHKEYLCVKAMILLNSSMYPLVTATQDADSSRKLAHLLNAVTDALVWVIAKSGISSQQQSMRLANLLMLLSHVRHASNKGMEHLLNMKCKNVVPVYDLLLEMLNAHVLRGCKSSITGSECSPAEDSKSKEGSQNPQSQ

Row | SMILES | EC50 [1] [µM] | EC50 [2] [µM] | EC50 [3] [µM] | Activity [4] [%] | IC50 [5] [µM] | IC50 [6] [µM] | pIC50 [7] | EC50 [8] [µM] | IC50 [9] [µM] | IC50 [7] [µM] | pEC50 [2] | pEC50 [1]
1 | C[C@]12CC[C@@H]3c4ccc(O)cc4CC[C@H]3[C@@H]1CC[C@@]2(O)/C=C/CC(F)(F)C(F)(F)C(F)(F)C(F)(F)C(F)(F)C(F)(F)F | 2.08 | < 2.75 | < 15.8 | – | < 15.8 | < 11.9 | – | < 15.8 | < 15.8 | < 5.36 | – | –
2 | C[C@]12CC[C@@H]3c4ccc(O)cc4CC[C@H]3[C@@H]1CC[C@@]2(O)/C=C/CC(F)(F)C(F)(F)C(F)(F)F | 0.0355 | 0.129 | < 15.8 | 0.35 | < 15.8 | < 12.4 | – | < 15.8 | 3.13 | 3.81 | – | –
3 | COc1ccc2c(c1)CC[C@@H]1[C@@H]2CC[C@@]2(C)[C@H]1CC[C@@]2(O)C/C=C/CC(F)(F)C(F)(F)C(F)(F)C(F)(F)C(F)(F)C(F)(F)F | – | – | < 15.8 | – | < 15.8 | < 15.8 | > 4.8 | 0.00673 | < 15.8 | – | > 4.902 | > 4.8
4 | COc1ccc2c(c1)CC[C@@H]1[C@@H]2CC[C@@]2(C)[C@H]1CC[C@@]2(O)/C=C/CC(F)(F)C(F)(F)C(F)(F)C(F)(F)C(F)(F)C(F)(F)F | – | < 8.34 | < 15.8 | – | < 15.8 | < 15.8 | > 4.8 | < 15.8 | < 15.8 | – | – | > 4.8

More lines, now with the values ahead:

Row | EC50 [1] [µM] | EC50 [2] [µM] | EC50 [3] [µM] | Activity [4] [%] | IC50 [5] [µM] | IC50 [6] [µM] | pIC50 [7] | EC50 [8] [µM] | IC50 [9] [µM] | IC50 [7] [µM] | pEC50 [2] | pEC50 [1] | SMILES
5 | 0.485 | 2.4 | < 15.8 | 0.02 | < 15.8 | < 15.8 | > 4.901 | < 15.8 | < 5.5 | – | – | – | C[C@]12CC[C@@H]3c4ccc(O)cc4CC[C@H]3[C@@H]1CC[C@@]2(O)C/C=C/CC(F)(F)C(F)(F)C(F)(F)F
6 | 0.403 | – | < 15.8 | – | < 15.8 | < 4.05 | – | < 15.8 | < 13.5 | 5.14 | > 4.8 | – | C[C@]12CC[C@@H]3c4ccc(O)cc4CC[C@H]3[C@@H]1CC[C@@]2(O)C/C=C/CC(F)(C(F)(F)F)C(F)(F)F
7 | 1.03 | 0.052 | < 15.8 | 0.88 | < 15.8 | < 15.8 | – | < 15.8 | < 15.8 | < 4.82 | – | – | C[C@]12CC[C@@H]3c4ccc(O)cc4CC[C@H]3[C@@H]1CC[C@@]2(O)C/C=C/CC(F)(F)C(F)(F)C(F)(F)C(F)(F)C(F)(F)C(F)(F)F
8 | 1.66 | – | < 15.8 | – | < 15.8 | < 15.8 | > 4.8 | < 15.8 | < 15.8 | – | > 4.817 | – | COc1ccc2c(c1)CC[C@@H]1[C@@H]2CC[C@@]2(C)[C@H]1CC[C@@]2(O)C/C=C/CC(F)(F)C(F)(F)C(F)(F)F
9 | 9.95 | – | < 15.8 | – | < 15.8 | < 15.7 | – | < 15.8 | 13.6 | < 6.65 | > 4.713 | – | C[C@]12CC[C@@H]3c4ccc(O)cc4CC[C@H]3[C@@H]1CC[C@@]2(O)/C=C/CC(F)(C(F)(F)F)C(F)(F)F
10 | 4.03 | 5.19 | < 15.8 | 0.01 | < 15.8 | < 15.8 | > 4.841 | < 15.8 | < 9.25 | – | – | – | COc1ccc2c(c1)CC[C@@H]1[C@@H]2CC[C@@]2(C)[C@H]1CC[C@@]2(O)/C=C/CC(F)(F)C(F)(F)C(F)(F)F
